# Earlier results in article PMC6627067, “Probing Multi-Target Action of Phlorotannins as New Monoamine Oxidase Inhibitors and Dopaminergic Receptor Modulators with the Potential for Treatment of Neuronal Disorders” (Marine Drugs, 2019).
# Key:
# hMAO-A = target: T1, hMAO-A (Homo sapiens, UniProt P21397); design: method as in PMID 28251489; conditions: cited from earlier work
# T1 sequence (P21397 1-527): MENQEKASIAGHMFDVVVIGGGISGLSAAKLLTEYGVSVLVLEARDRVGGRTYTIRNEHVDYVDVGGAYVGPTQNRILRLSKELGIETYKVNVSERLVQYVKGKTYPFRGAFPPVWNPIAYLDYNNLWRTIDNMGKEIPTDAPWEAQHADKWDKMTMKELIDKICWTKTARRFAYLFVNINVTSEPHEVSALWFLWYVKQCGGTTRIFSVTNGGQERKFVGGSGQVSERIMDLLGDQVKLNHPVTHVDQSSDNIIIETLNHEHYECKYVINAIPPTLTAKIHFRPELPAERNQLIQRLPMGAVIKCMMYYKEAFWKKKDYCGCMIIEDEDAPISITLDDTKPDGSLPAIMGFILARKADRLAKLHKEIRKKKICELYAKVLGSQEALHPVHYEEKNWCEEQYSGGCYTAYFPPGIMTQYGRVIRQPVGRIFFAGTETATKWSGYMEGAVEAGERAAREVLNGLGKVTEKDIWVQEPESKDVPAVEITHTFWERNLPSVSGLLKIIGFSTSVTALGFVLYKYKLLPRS
# hMAO-B = target: T2, hMAO-B (Homo sapiens, UniProt P27338); design: method as in PMID 28251489; conditions: cited from earlier work
# T2 sequence (P27338 1-520): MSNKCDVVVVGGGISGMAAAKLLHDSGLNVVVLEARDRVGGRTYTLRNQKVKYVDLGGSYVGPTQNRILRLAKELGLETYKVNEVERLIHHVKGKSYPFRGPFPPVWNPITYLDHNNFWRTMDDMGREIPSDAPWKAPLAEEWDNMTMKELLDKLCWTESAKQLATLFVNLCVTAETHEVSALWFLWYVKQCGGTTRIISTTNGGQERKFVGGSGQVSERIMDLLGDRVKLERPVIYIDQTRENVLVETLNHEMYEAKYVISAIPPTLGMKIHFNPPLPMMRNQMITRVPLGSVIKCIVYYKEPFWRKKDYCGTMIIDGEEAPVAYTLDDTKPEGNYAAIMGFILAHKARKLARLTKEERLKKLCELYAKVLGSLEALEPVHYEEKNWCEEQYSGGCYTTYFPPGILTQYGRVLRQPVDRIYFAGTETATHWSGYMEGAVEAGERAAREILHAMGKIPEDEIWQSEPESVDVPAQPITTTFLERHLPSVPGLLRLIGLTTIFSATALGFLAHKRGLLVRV
# hM5 (CHRM5) = target: T3, hM5 (CHRM5) (Homo sapiens, UniProt P08912); conditions: previous GPCR cell-based study; cited from earlier work
# T3 sequence (P08912 1-532): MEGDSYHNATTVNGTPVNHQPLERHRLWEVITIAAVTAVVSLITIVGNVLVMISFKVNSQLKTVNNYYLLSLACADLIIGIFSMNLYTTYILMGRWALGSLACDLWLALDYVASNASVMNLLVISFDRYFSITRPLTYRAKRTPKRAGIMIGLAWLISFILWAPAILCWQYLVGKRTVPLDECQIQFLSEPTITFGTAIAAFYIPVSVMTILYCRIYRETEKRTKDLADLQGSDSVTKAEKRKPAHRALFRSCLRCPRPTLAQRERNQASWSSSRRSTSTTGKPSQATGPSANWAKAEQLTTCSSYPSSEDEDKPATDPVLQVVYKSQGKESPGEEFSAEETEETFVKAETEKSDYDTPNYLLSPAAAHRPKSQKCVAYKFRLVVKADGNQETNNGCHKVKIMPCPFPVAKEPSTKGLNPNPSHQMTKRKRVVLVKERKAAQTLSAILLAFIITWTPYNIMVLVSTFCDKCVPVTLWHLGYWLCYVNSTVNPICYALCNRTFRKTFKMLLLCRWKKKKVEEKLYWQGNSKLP
# hNK1 (TACR1) = hNK1 (TACR1) (Homo sapiens, UniProt P25103); conditions: previous GPCR cell-based study; cited from earlier work
# h5-HT1A (HTR1A) = target: T4, h5-HT1A (HTR1A) (Homo sapiens, UniProt P08908); conditions: previous GPCR cell-based study; cited from earlier work
# T4 sequence (P08908 1-422): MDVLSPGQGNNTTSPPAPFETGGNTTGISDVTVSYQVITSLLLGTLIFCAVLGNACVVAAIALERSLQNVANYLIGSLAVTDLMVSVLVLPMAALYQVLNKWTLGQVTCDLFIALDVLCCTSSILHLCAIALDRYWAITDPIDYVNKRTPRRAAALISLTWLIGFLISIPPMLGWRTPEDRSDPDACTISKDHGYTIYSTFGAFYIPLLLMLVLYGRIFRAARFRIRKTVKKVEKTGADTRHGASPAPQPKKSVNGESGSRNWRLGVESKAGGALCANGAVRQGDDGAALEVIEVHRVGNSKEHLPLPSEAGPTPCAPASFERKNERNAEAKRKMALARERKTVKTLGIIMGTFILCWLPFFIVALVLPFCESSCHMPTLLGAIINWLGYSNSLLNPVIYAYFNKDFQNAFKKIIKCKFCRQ
# hV1A (AVPR1A) = hV1A (AVPR1A) (Homo sapiens, UniProt P37288); conditions: previous GPCR cell-based study; cited from earlier work
# hD1 (DRD1) = hD1 (DRD1) (Homo sapiens, UniProt P21728); design: host or cells: CHO cells; conditions: previous GPCR cell-based study; cited from earlier work
# hD3 (DRD3) = hD3 (DRD3) (Homo sapiens, UniProt P35462); design: host or cells: CHO cells; conditions: previous GPCR cell-based study; cited from earlier work
# hD4 (DRD4) = target: T5, hD4 (DRD4) (Homo sapiens, UniProt P21917); design: host or cells: CHO cells; conditions: previous GPCR cell-based study; cited from earlier work
# T5 sequence (P21917 1-419): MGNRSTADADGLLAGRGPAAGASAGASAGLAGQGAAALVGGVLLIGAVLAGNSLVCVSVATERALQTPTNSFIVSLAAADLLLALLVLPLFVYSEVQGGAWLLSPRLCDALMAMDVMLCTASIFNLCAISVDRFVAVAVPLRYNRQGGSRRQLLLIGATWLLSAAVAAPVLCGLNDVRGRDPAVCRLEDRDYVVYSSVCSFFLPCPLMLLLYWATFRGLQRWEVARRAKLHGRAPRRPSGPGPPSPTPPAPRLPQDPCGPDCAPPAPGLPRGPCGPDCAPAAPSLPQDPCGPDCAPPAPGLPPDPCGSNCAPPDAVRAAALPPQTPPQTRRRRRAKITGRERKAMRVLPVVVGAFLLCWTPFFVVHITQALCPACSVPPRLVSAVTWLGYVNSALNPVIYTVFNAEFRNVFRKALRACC
# hNK1 (TACR1), sequence (P25103 whole entry): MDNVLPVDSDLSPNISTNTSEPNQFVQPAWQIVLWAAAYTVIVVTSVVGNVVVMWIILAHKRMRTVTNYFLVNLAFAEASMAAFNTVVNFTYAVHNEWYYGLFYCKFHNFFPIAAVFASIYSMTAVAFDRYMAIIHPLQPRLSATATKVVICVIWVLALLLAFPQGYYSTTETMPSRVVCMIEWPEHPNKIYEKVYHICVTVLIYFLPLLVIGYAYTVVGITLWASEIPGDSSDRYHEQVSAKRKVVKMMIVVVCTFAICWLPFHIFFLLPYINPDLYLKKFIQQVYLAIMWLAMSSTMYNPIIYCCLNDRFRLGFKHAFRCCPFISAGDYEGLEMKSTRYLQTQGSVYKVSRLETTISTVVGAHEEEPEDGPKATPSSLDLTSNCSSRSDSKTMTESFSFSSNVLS
# hV1A (AVPR1A), sequence (P37288 whole entry): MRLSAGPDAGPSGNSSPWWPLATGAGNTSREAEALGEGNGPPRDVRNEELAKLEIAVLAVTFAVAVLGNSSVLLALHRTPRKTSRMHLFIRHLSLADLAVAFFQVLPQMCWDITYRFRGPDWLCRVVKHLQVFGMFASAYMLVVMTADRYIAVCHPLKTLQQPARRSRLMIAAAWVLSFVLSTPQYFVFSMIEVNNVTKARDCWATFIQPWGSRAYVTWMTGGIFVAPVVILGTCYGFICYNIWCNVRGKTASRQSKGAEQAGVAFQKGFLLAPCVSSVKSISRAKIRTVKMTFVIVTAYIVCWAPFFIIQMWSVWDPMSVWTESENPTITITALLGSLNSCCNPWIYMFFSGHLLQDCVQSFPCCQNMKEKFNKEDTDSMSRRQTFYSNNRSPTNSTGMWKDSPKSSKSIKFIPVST
# hD1 (DRD1), sequence (P21728 whole entry): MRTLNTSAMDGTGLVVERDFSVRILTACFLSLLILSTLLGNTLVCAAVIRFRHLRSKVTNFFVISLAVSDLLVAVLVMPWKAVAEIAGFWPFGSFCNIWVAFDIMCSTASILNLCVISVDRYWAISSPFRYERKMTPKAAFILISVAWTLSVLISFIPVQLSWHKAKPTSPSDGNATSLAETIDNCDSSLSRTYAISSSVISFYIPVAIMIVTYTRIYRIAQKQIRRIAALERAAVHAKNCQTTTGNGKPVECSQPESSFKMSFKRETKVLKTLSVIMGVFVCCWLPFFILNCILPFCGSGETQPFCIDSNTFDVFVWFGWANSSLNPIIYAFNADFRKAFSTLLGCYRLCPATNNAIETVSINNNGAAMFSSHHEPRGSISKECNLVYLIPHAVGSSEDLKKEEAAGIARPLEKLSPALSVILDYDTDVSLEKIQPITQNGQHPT
# hD3 (DRD3), sequence (P35462 whole entry): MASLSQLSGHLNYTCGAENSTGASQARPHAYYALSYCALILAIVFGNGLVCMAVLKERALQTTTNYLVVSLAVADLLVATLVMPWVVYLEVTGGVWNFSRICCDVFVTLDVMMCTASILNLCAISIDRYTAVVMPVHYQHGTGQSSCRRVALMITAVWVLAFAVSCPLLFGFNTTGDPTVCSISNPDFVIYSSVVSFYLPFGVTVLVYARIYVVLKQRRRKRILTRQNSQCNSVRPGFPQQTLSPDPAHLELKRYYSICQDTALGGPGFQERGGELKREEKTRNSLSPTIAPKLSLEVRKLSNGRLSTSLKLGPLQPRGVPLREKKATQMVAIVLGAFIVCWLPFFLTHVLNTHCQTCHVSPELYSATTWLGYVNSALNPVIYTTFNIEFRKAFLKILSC
smiles,measurement,setting,value
"Oc1cc(O)cc(Oc2c(O)cc(O)c3c2Oc2c(O)cc(O)cc2O3)c1 [Eckol, eckol]",Inhibition type hMAO-A,"hMAO-A; NC = noncompetitive, Mixed = mixed type",Mixed
same,Ki,hMAO-A,20.3 µM
same,SI (selective index),hMAO-A; ratio of hMAO-A IC50/hMAO-B IC50,0.09
same,IC50,"hMAO-A; recombinant hMAO-A, obtained from the literature",7.2 ± 0.71 µM
same,Ki,hMAO-B,163 µM
same,IC50,"hMAO-B; recombinant hMAO-B, obtained from the literature",83.4 ± 1.48 µM
same,Effect on M5 receptor,hM5 (CHRM5),null effects
same,Effect on NK1 receptor,hNK1 (TACR1),null effects
same,Effect on 5HT1A receptor,h5-HT1A (HTR1A),null effects
same,Effect on V1A receptor,hV1A (AVPR1A),null effects
same,Effect on D1R,hD1 (DRD1),null effects
same,Effect on hD3R,hD3 (DRD3),agonist
same,Effect on hD4R,hD4 (DRD4),agonist
